Experimental findings from US12486240B2, “Oxadiazole compounds for controlling or preventing phytopathogenic fungi” (PI INDUSTRIES LTD., priority 2019, dated 2025) are described below.

One assay has as its system Rhizoctonia solani. Description: Rhizoctonia solani mycelial radial growth test on potato dextrose agar. In kind it is cell-based. The conditions noted are these: 300 ppm, 25° C., 60% relative humidity, seven days.
In a further assay the test system is Phakopsora pachyrhizi. Description: Phakopsora pachyrhizi test on soybean (preventive spray). The conditions noted are these: preventive spray on soybean plants, inoculated one day after treatment, rated 3, 7, 10 and 15 days after application, read-out: Efficacy (% control) from disease severity rating versus untreated control. In kind it is in vivo. On the procedure:
Example 5: Phakopsora pachyrhizi Test on Soybean Compounds were dissolved in 2% dimethyl sulfoxide/acetone and then mixed with water containing an emulsifier to a calibrated spray volume of 50 mL. This 50 mL spray solution was poured into spray bottles for further applications. To test the preventive activity of compounds, healthy young Soybean plants raised in the greenhouse were sprayed with the active compound preparation at the stated application rates inside the spray cabinets using hollow cone nozzles. One day after treatment, the plants were inoculated with a spore suspension containing 2×10^5 Phakopsora pachyrhizi conidia. The inoculated plants were then kept in a greenhouse chamber at 22-24° C. temperature and 80-90% relative humidity for disease expression. A visual assessment of the compound's performance was carried out by rating the disease severity (0-100% scale) on treated plants 3, 7, 10 and 15 days after application. Efficacy (% control) of the compounds was calculated by comparing the disease rating in the treatment with the one of the untreated control. The sprayed plants were also assessed for plant compatibility by recording symptoms like necrosis, chlorosis and stunting.

Another assay deals with Botrytis cinerea. The assay is described as follows: Botrytis cinerea mycelial radial growth test on potato dextrose agar. In kind it is cell-based. To be noted: 300 ppm, 22° C., 90% relative humidity, seven days.

As for `CCN(C)c1c(Nc2ccc(-c3noc(C(F)(F)F)n3)cc2)c(=O)c1=O` [Compound 3, 3-(ethyl(methyl)amino)-4-((4-(5-(trifluoromethyl)-1,2,4-oxadiazol-3-yl)phenyl)amino)cyclobut-3-ene-1,2-dione], the “control (radial growth compared to untreated control)” value with Rhizoctonia solani is listed as ≥ 70%. Also, in the assay on Phakopsora pachyrhizi, the pest or weed control at 500 ppm was ≥ 70%.

For `COCCN(C)c1c(Nc2ccc(-c3noc(C(F)(F)F)n3)cc2)c(=O)c1=O` [Compound 7, 3-((2-methoxyethyl)(methyl)amino)-4-((4-(5-(trifluoromethyl)-1,2,4-oxadiazol-3-yl)phenyl)amino)cyclobut-3-ene-1,2-dione], the “control (radial growth compared to untreated control)” value with Botrytis cinerea is on record as ≥ 70%. The pest or weed control at 500 ppm with Phakopsora pachyrhizi is ≥ 70%.

Turning to `CN1CCN(c2c(N(C)Cc3ccc(-c4noc(C(F)(F)F)n4)cc3)c(=O)c2=O)CC1` [Compound 52, 3-(methyl(4-(5-(trifluoromethyl)-1,2,4-oxadiazol-3-yl)benzyl)amino)-4-(4-methylpiperazin-1-yl)cyclobut-3-ene-1,2-dione], the pest or weed control at 500 ppm in the assay on Phakopsora pachyrhizi is ≥ 70%.

Turning to `CCN(C)c1c(N(C)Cc2ccc(-c3noc(C(F)(F)F)n3)cc2)c(=O)c1=O` [Compound 53, 3-(ethyl(methyl)amino)-4-(methyl(4-(5-(trifluoromethyl)-1,2,4-oxadiazol-3-yl)benzyl)amino)cyclobut-3-ene-1,2-dione], the pest or weed control at 500 ppm in the assay with Phakopsora pachyrhizi is ≥ 70%.

Take `COC1CCN(c2c(N(C)Cc3ccc(-c4noc(C(F)(F)F)n4)cc3)c(=O)c2=O)C1` (stereo not drawn) [Compound 54, 3-(3-methoxypyrrolidin-1-yl)-4-(methyl(4-(5-(trifluoromethyl)-1,2,4-oxadiazol-3-yl)benzyl)amino)cyclobut-3-ene-1,2-dione]: the pest or weed control at 500 ppm in the assay with Phakopsora pachyrhizi was ≥ 70%.

Regarding `CN(Cc1ccc(-c2noc(C(F)(F)F)n2)cc1)c1c(N2CCC(F)C2)c(=O)c1=O` (stereo not drawn) [Compound 55, 3-(3-fluoropyrrolidin-1-yl)-4-(methyl(4-(5-(trifluoromethyl)-1,2,4-oxadiazol-3-yl)benzyl)amino)cyclobut-3-ene-1,2-dione], the pest or weed control at 500 ppm with Phakopsora pachyrhizi was ≥ 70%.

Consider `C=CCNc1c(N(C)Cc2ccc(-c3noc(C(F)(F)F)n3)cc2)c(=O)c1=O` [Compound 56, 3-(allylamino)-4-(methyl(4-(5-(trifluoromethyl)-1,2,4-oxadiazol-3-yl)benzyl)amino)cyclobut-3-ene-1,2-dione], for which, in the assay with Phakopsora pachyrhizi, the pest or weed control at 500 ppm was ≥ 70%.
